The EC50 is the concentration giving half of the maximal effect. As usually defined, the Emax is the size of the effect at its maximum, as opposed to the concentration needed.

We go through 30 compounds from patent US10239887B2, “Positive allosteric modulators of the muscarinic acetylcholine receptor M4” (Vanderbilt University, priority 2016, dated 2019).

The structures appear in SMILES notation. Where a name gives a salt, the structure may show the parent alone. A value given as a limit tells only on which side of the number the result lay.

This experiment deals with T1, human mAChR M4 (Homo sapiens, UniProt P08173).
T1 sequence (P08173 1-479): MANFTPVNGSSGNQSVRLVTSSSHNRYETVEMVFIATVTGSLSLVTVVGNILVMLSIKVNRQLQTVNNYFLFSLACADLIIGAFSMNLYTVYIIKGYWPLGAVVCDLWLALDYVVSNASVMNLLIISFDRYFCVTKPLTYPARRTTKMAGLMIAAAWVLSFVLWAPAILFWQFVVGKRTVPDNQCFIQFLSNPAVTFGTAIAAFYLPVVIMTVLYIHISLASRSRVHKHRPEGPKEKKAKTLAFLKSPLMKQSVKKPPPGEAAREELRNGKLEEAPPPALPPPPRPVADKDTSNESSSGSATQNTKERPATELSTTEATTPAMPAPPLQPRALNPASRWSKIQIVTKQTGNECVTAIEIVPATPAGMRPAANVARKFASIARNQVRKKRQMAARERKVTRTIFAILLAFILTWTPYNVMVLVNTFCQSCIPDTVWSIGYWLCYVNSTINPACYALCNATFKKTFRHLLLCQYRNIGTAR
Description: mAChR M4 cell-based functional assay (calcium flux), human M4. Conditions: for EC50: Human M4 EC50 (nM); for Emax / Emax (%): % ACh maximum at 30 μM. (Calcium assays in cells follow changes in intracellular calcium, usually with a dye or a luminescent sensor.)

Where [1] appears, read: Table 10, calcium flux, PAM activity with EC20 acetylcholine.

Consider `Cc1nc2sc3c(NCc4ccc(C(C)(C)O)cc4F)ncnc3c2c(C)c1Cl` [Compound 279, 2-[4-[[(8-chloro-7,9-dimethyl-pyrido [3′,2′:4,5]thieno[3,2-d]pyrimidin-4-yl)amino]methyl]-3-fluoro-phenyl] propan-2-ol], for which, under setting [1], the 50% effective concentration (EC50) was determined as 6020 nM. Moreover, the Emax (Table 10) stood at 49.4%. As for `COc1nnc2sc3c(NCc4ccc(C(C)(C)O)cc4)ncnc3c2c1C` [Compound 280, 2-[4-[[(3-methoxy-4-methyl-pyrimido [4′,5′:4,5]thieno[2,3-c]pyridazin-8-yl)amino]methyl]phenyl]propan-2-ol], the Emax (Table 10) was 86.7%.

In the case of `COc1nnc2sc3c(N4CCCC4)ncnc3c2c1C` [Compound 281, 3-methoxy-4-methyl-8-pyrrolidin-1-yl-pyrimido [4′,5′:4,5]thieno[2,3-c] pyridazine], the EC50 under setting [1] was 47.7 nM. Under “Table 10”, the maximal effect (Emax) is 117%.

As for `COc1nnc2sc3c(NC4CN(c5ncc(C(F)(F)F)cn5)C4)ncnc3c2c1C` [Compound 282, 3-methoxy-4-methyl-N-[1-[5-(trifluoromethyl)pyrimidin-2-yl]azetidin-3-yl]pyrimido[4′,5′:4,5]thieno [2,3-c]pyridazin-8-amine], the 50% effective concentration (EC50) under setting [1] is 1140 nM. Under “Table 10”, the maximum response (Emax) was 90.9%. Taken in the same sequence, the figures for `CCNc1ncnc2c1oc1nc(C)c(Cl)c(C)c12` [Compound 287, 8-chloro-N-ethyl-7,9-dimethyl-pyrido[3′,2′:4,5]furo[3,2-d]pyrimidin-4-amine hydrochloride] were 1250 nM and 40.6%.

As to `Cc1nc2oc3c(NCc4cccc(C(C)(C)O)c4)ncnc3c2c(C)c1Cl` [Compound 288, 2-[3-[[(8-chloro-7,9-dimethyl-pyrido[3′,2′:4,5]furo[3,2-d]pyrimidin-4-yl)amino]methyl]phenyl]propan-2-ol], the EC50 under setting [1] came to 1880 nM. In addition, under “Table 10”, the Emax is 54.4%. On to `Cc1cc(C)c2c(n1)oc1c(NC3CN(c4ncc(F)cn4)C3)ncnc12` [Compound 289, N-[1-(5-fluoropyrimidin-2-yl)azetidin-3-yl]-7,9-dimethyl-pyrido[3′,2′:4,5]furo[3,2-d]pyrimidin-4-amine hydrochloride], for which the Emax (Table 10) amounted to 34.9%. As for `Cc1cc(C)c2c(n1)oc1c(NC3CN(c4cc(Cl)ncc4Cl)C3)ncnc12` [Compound 290, N-[1-(2,5-dichloro-4-pyridyl)azetidin-3-yl]-7,9-dimethyl-pyrido[3′,2′:4,5]furo[3,2-d]pyrimidin-4-amine dihydrochloride], the 50% effective concentration (EC50) under setting [1] came out at 1490 nM. In addition, the “Emax (%)” value (Table 10) was 49.29%. Consider `Cc1cc(C)c2c(n1)oc1c(NCc3ccc(S(C)(=O)=O)cc3)ncnc12` [Compound 292, 7,9-dimethyl-N-[(4-methylsulfonylphenyl)methyl]pyrido[3′,2′:4,5]furo [3,2-d]pyrimidin-4-amine hydrochloride], for which, under setting [1], the EC50 was found to be 1200 nM. Also, under “Table 10”, the maximal effect (Emax) was found to be 42.5%. On to `Cc1cc(C)c2c(n1)oc1c(NC3CCC3)ncnc12` [Compound 293, N-cyclobutyl-7,9-dimethyl-pyrido[3′,2′:4,5]furo[3,2-d]pyrimidin-4-amine hydrochloride], for which, under setting [1], the EC50 amounted to 1590 nM. Besides, the “Emax (%)” value (Table 10) stood at 44.18%.

Regarding `Cc1cc(C)c2c(n1)oc1c(NC3CC3c3ccc(F)c(F)c3)ncnc12` (stereo not shown) [Compound 294, N-[2-(3,4-difluorophenyl)cyclopropyl]-7,9-dimethyl-pyrido[3′,2′:4,5]furo [3,2-d]pyrimidin-4-amine hydrochloride], the EC50 under setting [1] was found to be 3380 nM. Besides, the maximal response (Emax) (Table 10) was 56.3%. Turning to `Cc1cc(C)c2c(n1)oc1c(NC3CC3)ncnc12` [Compound 295, N-cyclopropyl-7,9-dimethyl-pyrido[3′,2′:4,5]furo[3,2-d]pyrimidin-4-amine hydrochloride], for the setting “Table 10”, the “Emax (%)” value is 63.93%. As for `Cc1cc(C)c2c(n1)oc1c(N3CC4(COC4)C3)ncnc12` [Compound 296, 7,9-dimethyl-4-(2-oxa-6-azaspiro[3.3]heptan-6-yl)pyrido[3′,2′:4,5]furo[3,2-d]pyrimidine], the EC50 under setting [1] worked out at 3370 nM. Also, the maximal response (Emax) (Table 10) was 37.7%.

With `Cc1nnc2oc3c(NC4CN(c5ccc(F)c(F)c5)C4)ncnc3c2c1C` [Compound 297, N-[1-(3,4-difluorophenyl)azetidin-3-yl]-3,4-dimethyl-pyrimido[4′,5′:4,5]furo [2,3-c]pyridazin-8-amine], the EC50 under setting [1] stood at 59.4 nM. For the same compound, the Emax (Table 10) amounted to 73%. Taken in the same sequence, the figures for `Cc1nnc2oc3c(NCc4ccc(C5(O)CCC5)cc4)ncnc3c2c1C` [Compound 298, 1-[4-[[(3,4-dimethylpyrimido [4′,5′:4,5]furo[2,3-c]pyridazin-8-yl)amino]methyl]phenyl]cyclobutanol] were 862 nM and 58.2%. Taken in the same sequence, the figures for `Cc1nnc2oc3c(NCc4ccc(C(C)(C)O)cc4)ncnc3c2c1C` [Compound 299, 2-[4-[[(3,4-dimethylpyrimido [4′,5′:4,5]furo[2,3-c]pyridazin-8-yl)amino]methyl]phenyl]propan-2-ol] were 2290 nM and 61.2%. Consider `Cc1nnc2oc3c(NCc4cccc(C5(O)CCC5)c4)ncnc3c2c1C` [Compound 300, 1-[3-[[(3,4-dimethylpyrimido [4′,5′:4,5]furo[2,3-c]pyridazin-8-yl)amino]methyl]phenyl]cyclobutanol], for which the maximal effect (Emax) (Table 10) was determined as 61.1%.

On to `Cc1nnc2oc3c(NCc4cccc(C(C)(C)O)c4)ncnc3c2c1C` [Compound 301, 2-[3-[[(3,4-dimethylpyrimido [4′,5′:4,5]furo[2,3-c]pyridazin-8-yl)amino]methyl]phenyl]propan-2-ol], for which, for the setting “Table 10”, the Emax was found to be 63.4%. For `Cc1nnc2oc3c(NC4CC4)ncnc3c2c1C` [Compound 302, N-cyclopropyl-3,4-dimethyl-pyrimido [4′,5′:4,5]furo[2,3-c]pyridazin-8-amine], the concentration giving a half-maximal response (EC50) under setting [1] amounted to 1300 nM. Besides, the maximal response (Emax) (Table 10) amounted to 66.5%. Regarding `Cc1nnc2oc3c(NC4CCC4)ncnc3c2c1C` [Compound 303, N-cyclobutyl-3,4-dimethyl-pyrimido [4′,5′:4,5]furo[2,3-c]pyridazin-8-amine], under setting [1], the EC50 was 1530 nM. Besides, for the setting “Table 10”, the maximal response (Emax) stood at 54.8%. As to `Cc1nnc2oc3c(NC4CCCC4)ncnc3c2c1C` [Compound 304, N-cyclopentyl-3,4-dimethyl-pyrimido [4′,5′:4,5]furo[2,3-c]pyridazin-8-amine], the concentration for a half-maximal effect (EC50) under setting [1] stood at 818 nM. Besides, the Emax (Table 10) worked out at 45.9%. In the case of `Cc1nnc2oc3c(NC4CC5(COC5)C4)ncnc3c2c1C` [Compound 305, 3,4-dimethyl-N-(2-oxaspiro[3.3]heptan-6-yl)pyrimido[4′,5′:4,5] furo[2,3-c]pyridazin-8-amine], where the note is “Table 10, unit μM (bounds)”, the EC50 is > 10000 nM. The Emax (Table 10) came to 25.6%. Regarding `Cc1nnc2oc3c(NC4CC(F)(F)C4)ncnc3c2c1C` [Compound 306, N-(3,3-difluoro-cyclobutyl)-3,4-dimethyl-pyrimido [4′,5′:4,5]furo[2,3-c]pyridazin-8-amine], the EC50 under setting [1] came out at 1750 nM. For the same compound, the Emax (Table 10) was 57.9%. Taken in the same sequence, the figures for `Cc1nnc2oc3c(N4CC5(COC5)C4)ncnc3c2c1C` [Compound 307, 3,4-dimethyl-8-(2-oxa-6-azaspiro[3.3]heptan-6-yl)pyrimido[4′,5′:4,5] furo[2,3-c]pyridazine] were 4840 nM and 46.1%. Taken in the same sequence, the figures for `Cc1nnc2oc3c(NCc4ccc(C(C)(C)O)nc4)ncnc3c2c1C` [Compound 308, 2-[5-[[(3,4-dimethylpyrimido [4′,5′:4,5]furo[2,3-c]pyridazin-8-yl)amino]methyl]-2-pyridyl]propan-2-ol] were 9160 nM and 59.5%. Consider `COc1ccc(CNc2ncnc3c2oc2nnc(C)c(C)c23)cc1` [Compound 309, N-[(4-methoxyphenyl)methyl]-3,4-dimethyl-pyrimido [4′,5′:4,5]furo[2,3-c]pyridazin-8-amine], for which, under setting [1], the half-maximal effective concentration (EC50) was found to be 403 nM. For the same compound, the Emax (Table 10) came out at 73.6%.

Consider `COc1cc(F)c(CNc2ncnc3c2oc2nnc(C)c(C)c23)c(F)c1` [Compound 310, N-[(2,6-difluoro-4-methoxy-phenyl)methyl]-3,4-dimethyl-pyrimido[4′,5′:4,5] furo[2,3-c]pyridazin-8-amine], for which the concentration for a half-maximal effect (EC50) under setting [1] came to 845 nM. Further, for the setting “Table 10”, the Emax was 53.2%. Turning to `COc1c(F)cc(CNc2ncnc3c2oc2nnc(C)c(C)c23)cc1F` [Compound 311, N-[(3,5-difluoro-4-methoxy-phenyl)methyl]-3,4-dimethyl-pyrimido[4′,5′:4,5] furo[2,3-c]pyridazin-8-amine], under setting [1], the EC50 was 378 nM. The maximum response (Emax) (Table 10) came out at 51%. As for `Cc1nnc2oc3c(NCc4ccc(C(C)(O)C(F)(F)F)cc4)ncnc3c2c1C` (stereo not shown) [Compound 312, 2-[4-[[(3,4-dimethylpyrimido [4′,5′:4,5]furo[2,3-c]pyridazin-8-yl)amino]methyl]phenyl]-1,1,1-trifluoro-propan-2-ol], the half-maximal effective concentration (EC50) under setting [1] was 909 nM. Also, the Emax (Table 10) is 70.2%. As to `Cc1nnc2sc3c(NCc4ccc(C(=O)NC5CC5)c(Cl)c4)ncnc3c2c1C` [Compound 313, 2-chloro-N-cyclopropyl-4-[[(3,4-dimethylpyrimido[4′,5′:4,5]thieno[2,3-c]pyridazin-8-yl)amino]methyl]benzamide], the EC50 (Table 11, calcium flux, PAM activity with EC20 acetylcholine) came to 166 nM. Moreover, the maximal response (Emax) (Table 11) is 75.2%.
